Measurements reported in patent US11034672B1, “Tyrosine kinase inhibitor compositions, methods of making and methods of use” (Black Diamond Therapeutics, Inc., priority 2018, dated 2021).

Legend:
Type in all cases: cell-based
EGFR WT [1] = molecular target: T1, EGFR WT (Homo sapiens, UniProt P00533); assay: BaF3 cell proliferation assay, EGFR WT (Table A); conditions: potency code, 3 days, CellTiterGlo, read-out: EGFR WT (Activity for Inhibiting EGFR)
Protocol: (§1) Retroviral Production: EGFR mutants were subcloned into pMXs-IRES-Blasticidin (RTV-016, Cell Biolabs, San Diego, Calif.). Retroviral expression vector retrovirus was produced by transient transfection of HEK 293T cells with the retroviral EGFR mutant expression vector pMXs-IRES-Blasticidin (RTV-016, Cell Biolabs), pCMV-Gag-Pol vector and pCMV-VSV-G-Envelope vector. Briefly, HEK 293T/17 cells were plated in 100 mm collagen coated plate (354450, Corning Life Sciences, Tewksbury, Mass.) (4×10^5 per plate) and incubated overnight. The next day, retroviral plasmids (3 μg of EGFR mutant, 1.0 μg of pCMV-Gag-Pol and 0.5 μg pCMV-VSV-G) were mixed in 500 μl of Optimem (31985, Life Technologies). The mixture was incubated at room temperature for 5 min and then added to Optimem containing transfection reagent Lipofectamine (11668, Invitrogen) and incubated for 20 minutes. Mixture was then added dropwise to HEK 293T cells. The next day the medium was replaced with fresh culture medium and retrovirus was harvested @ 24 and 48 hrs.
(§2) Generation of EGFR mutant stable cell lines: BaF3 cells (1.5E5 cells) were infected with 1 ml of viral supernatant supplemented with 8 μg/ml polybrene by centrifuging for 30 min at 1000 rpm. Cells were placed in a 37° C. incubator overnight. Cells were then spun for 5 minutes to pellet the cells. Supernatant was removed and cells re-infected a fresh 1 ml of viral supernatant supplemented with 8 μg/ml polybrene by centrifuging for 30 min at 1000 rpm. Cells were placed in 37° C. incubator overnight. […] After 48 hours cells were selected for retroviral infection in 10 μg/ml Blasticidin for one week. Blasticidin resistant populations were washed twice in phosphate buffered saline before plating in media lacking IL-3 to select for IL-3 independent growth.
(§3) EC50 values were determined with the same application.

HER2 YVMA [2] = molecular target: T2, HER2 YVMA (Homo sapiens, UniProt P04626, INS775YVMA); assay: Activity for inhibiting HER2 (Table B), HER2 YVMA; conditions: read-out: HER2 YVMA, potency code (IC50)
T2 construct: expressed in transfected cells; host or cells: BaF3 (murine pro-B)
T2 sequence (P04626 with tags, fused parts or gaps INS775YVMA): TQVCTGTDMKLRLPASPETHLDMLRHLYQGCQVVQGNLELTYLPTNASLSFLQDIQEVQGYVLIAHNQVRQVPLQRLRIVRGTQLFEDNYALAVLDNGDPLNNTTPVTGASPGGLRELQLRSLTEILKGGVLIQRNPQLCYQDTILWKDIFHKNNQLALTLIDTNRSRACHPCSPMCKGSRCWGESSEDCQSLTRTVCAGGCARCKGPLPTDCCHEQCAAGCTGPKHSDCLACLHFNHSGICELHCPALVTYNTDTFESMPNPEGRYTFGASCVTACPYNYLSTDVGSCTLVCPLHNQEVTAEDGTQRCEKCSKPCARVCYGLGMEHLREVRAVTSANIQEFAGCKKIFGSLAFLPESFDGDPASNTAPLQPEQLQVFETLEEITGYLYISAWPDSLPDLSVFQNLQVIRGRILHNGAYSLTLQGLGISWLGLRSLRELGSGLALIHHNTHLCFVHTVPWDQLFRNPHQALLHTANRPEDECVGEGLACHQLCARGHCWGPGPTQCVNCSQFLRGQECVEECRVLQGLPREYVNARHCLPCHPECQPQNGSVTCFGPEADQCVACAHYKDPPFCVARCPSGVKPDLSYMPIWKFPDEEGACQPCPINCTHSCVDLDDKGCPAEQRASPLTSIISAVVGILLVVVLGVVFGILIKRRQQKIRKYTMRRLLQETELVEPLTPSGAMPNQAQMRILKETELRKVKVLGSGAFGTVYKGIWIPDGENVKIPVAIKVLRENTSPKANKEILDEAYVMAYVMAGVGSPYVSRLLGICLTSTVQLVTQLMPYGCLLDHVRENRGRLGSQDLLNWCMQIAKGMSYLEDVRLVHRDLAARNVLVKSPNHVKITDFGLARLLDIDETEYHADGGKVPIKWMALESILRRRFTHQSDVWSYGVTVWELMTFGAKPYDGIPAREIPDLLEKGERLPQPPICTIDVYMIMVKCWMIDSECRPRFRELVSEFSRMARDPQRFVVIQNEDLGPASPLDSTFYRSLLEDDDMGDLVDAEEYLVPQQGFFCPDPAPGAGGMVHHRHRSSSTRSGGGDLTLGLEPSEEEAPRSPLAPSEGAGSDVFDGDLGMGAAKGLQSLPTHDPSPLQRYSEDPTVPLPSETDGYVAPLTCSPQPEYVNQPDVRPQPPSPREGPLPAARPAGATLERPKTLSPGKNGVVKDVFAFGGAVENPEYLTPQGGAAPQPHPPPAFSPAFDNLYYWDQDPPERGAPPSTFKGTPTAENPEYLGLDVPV
Protocol: as §3

HER2 YVMA [3] = molecular target: T2, HER2 YVMA; assay: BaF3 cell proliferation assay, HER2 YVMA (Table B); conditions: potency code, 3 days, CellTiterGlo, read-out: HER2 YVMA (Activity for Inhibiting HER2)
EGFR V3 [4] = molecular target: T3, EGFR V3 (Homo sapiens, UniProt P00533, DELINS30-297G); assay: BaF3 cell proliferation assay, EGFR V3 (Table A); conditions: potency code, 3 days, CellTiterGlo, read-out: EGFR V3 (Activity for Inhibiting EGFR)
T3 construct: expressed in transfected cells; host or cells: BaF3 (murine pro-B), retroviral pMXs-IRES-Blasticidin
T3 sequence (P00533 with tags, fused parts or gaps DELINS30-297G): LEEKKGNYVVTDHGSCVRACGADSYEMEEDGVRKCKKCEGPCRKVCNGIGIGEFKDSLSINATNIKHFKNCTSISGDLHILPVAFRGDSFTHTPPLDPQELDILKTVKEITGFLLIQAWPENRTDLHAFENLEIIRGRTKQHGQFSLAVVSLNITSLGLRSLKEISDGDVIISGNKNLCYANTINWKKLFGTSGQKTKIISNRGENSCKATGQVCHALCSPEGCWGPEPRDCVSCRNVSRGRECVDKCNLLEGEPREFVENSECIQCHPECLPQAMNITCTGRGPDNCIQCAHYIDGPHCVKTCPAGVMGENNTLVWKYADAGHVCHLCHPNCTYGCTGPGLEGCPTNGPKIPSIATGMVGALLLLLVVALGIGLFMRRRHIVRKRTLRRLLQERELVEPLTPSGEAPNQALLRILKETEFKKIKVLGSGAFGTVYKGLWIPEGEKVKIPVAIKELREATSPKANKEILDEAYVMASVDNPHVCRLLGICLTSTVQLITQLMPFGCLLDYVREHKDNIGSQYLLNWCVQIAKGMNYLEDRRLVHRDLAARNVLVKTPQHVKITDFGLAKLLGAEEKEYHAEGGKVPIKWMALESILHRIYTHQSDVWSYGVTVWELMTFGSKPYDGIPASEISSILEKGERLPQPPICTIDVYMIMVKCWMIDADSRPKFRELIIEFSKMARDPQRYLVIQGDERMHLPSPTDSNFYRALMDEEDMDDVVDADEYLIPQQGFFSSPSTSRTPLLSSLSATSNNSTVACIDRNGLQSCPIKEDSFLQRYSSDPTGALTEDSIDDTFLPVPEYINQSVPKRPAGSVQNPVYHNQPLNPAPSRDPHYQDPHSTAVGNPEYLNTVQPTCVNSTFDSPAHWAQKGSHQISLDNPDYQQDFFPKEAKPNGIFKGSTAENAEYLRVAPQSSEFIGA
Protocol: as §1, §2, §3

EGFR WT [5] = molecular target: T1, EGFR WT; assay: Activity for inhibiting EGFR (Table A), EGFR WT; conditions: read-out: EGFR WT, potency code (IC50)
EGFR V3 [6] = molecular target: T3, EGFR V3; assay: Activity for inhibiting EGFR (Table A), EGFR V3 (EGFR-Viii); conditions: read-out: EGFR V3, potency code (IC50)
HER2 S310F [7] = molecular target: T4, HER2 S310F (Homo sapiens, UniProt P04626, S310F); assay: BaF3 cell proliferation assay, HER2 S310F (Table B); conditions: potency code, 3 days, CellTiterGlo, read-out: HER2 S310F (Activity for Inhibiting HER2)
T4 construct: expressed in transfected cells; host or cells: BaF3 (murine pro-B)
T4 sequence (P04626 23-1255 S310F): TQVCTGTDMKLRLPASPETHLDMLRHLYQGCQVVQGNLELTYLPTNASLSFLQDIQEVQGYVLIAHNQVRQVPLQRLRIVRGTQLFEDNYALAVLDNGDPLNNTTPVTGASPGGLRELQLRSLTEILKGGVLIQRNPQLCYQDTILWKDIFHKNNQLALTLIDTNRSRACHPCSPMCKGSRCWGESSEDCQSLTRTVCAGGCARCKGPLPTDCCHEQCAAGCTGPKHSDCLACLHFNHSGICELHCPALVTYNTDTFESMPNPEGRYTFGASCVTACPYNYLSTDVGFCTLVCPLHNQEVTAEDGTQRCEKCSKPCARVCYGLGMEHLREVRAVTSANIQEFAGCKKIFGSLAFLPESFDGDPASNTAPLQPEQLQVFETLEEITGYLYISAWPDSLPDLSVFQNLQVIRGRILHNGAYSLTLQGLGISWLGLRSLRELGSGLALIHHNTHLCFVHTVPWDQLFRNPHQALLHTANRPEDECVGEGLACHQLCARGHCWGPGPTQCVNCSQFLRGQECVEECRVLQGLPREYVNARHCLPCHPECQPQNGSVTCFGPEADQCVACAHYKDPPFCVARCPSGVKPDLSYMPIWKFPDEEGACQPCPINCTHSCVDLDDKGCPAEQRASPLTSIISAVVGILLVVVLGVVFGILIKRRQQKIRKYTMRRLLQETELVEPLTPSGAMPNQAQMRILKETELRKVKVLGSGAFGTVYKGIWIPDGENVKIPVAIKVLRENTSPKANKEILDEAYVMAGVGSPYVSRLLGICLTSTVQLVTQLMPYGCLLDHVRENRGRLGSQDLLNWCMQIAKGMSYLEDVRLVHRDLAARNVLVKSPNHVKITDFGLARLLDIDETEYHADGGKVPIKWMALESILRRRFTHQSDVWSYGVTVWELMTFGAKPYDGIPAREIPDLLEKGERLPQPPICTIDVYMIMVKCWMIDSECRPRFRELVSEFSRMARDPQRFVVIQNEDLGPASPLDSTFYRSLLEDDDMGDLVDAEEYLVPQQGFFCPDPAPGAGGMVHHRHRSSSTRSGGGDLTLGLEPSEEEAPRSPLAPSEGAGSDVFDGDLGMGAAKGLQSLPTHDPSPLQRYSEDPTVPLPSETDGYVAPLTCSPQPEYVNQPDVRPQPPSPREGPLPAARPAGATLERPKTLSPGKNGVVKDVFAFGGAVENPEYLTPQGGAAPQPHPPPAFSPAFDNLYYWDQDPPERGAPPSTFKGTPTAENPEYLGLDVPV

HER2 S310F [8] = molecular target: T4, HER2 S310F; assay: Activity for inhibiting HER2 (Table B), HER2 S310F; conditions: read-out: HER2 S310F, potency code (IC50)
Protocol: as §3

T1 sequence (P00533 25-1210 N540K): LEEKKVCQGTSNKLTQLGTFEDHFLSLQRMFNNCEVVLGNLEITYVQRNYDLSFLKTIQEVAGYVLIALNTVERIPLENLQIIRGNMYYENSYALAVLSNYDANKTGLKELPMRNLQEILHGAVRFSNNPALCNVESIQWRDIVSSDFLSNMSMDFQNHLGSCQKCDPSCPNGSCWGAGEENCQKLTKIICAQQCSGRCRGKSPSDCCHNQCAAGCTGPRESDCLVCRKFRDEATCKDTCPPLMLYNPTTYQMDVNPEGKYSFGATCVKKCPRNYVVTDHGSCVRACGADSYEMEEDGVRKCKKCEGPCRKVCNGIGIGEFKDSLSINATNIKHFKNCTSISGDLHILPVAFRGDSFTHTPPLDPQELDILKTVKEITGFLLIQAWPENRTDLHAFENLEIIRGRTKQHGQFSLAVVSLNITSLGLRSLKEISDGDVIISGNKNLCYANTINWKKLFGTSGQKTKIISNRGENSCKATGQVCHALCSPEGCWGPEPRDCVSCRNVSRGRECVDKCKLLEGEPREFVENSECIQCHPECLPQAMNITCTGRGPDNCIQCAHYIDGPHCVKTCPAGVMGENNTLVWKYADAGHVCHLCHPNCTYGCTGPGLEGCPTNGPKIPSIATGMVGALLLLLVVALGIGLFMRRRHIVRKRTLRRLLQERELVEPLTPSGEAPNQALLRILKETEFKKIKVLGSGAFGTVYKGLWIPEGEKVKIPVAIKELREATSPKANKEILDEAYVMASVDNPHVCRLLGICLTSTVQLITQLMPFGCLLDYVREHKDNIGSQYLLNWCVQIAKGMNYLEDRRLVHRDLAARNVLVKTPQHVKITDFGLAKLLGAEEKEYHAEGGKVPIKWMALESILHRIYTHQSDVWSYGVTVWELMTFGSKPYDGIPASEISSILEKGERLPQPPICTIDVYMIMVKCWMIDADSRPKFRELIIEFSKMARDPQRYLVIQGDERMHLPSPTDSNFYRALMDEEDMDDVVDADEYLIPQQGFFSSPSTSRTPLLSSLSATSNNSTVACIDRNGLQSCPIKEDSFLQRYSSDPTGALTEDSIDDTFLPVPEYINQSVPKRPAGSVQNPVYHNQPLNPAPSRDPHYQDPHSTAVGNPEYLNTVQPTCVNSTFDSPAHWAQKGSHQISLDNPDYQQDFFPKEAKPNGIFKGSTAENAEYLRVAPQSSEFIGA

SMILES | IC50 (EGFR WT [1]) | IC50 (HER2 YVMA [2]) | IC50 (HER2 YVMA [3]) | IC50 (EGFR V3 [4]) | IC50 (EGFR WT [5]) | IC50 (EGFR V3 [6]) | IC50 (HER2 S310F [7]) | IC50 (HER2 S310F [8])
C=CC(=O)Nc1cc2c(Nc3ccc(OCc4cccc(OC(F)(F)F)n4)c(Cl)c3)ncnc2cc1OCCN1CCOCC1 [compound 24] | > 1000 nM | 300 to 500 nM | 300 to 500 nM | 200 to 300 nM | > 1000 nM | 200 to 300 nM | 200 to 300 nM | 200 to 300 nM
C=CC(=O)Nc1cc2c(Nc3ccc(OCc4ccccn4)c(Cl)c3)ncnc2cc1N1CC2(CN(C)C2)C1 [compound 45] | 500 to 1000 nM | > 1000 nM | > 1000 nM | 200 to 300 nM | 500 to 1000 nM | 200 to 300 nM | 300 to 500 nM | 300 to 500 nM
C=CC(=O)Nc1cc2c(Nc3ccc(OCc4ccccn4)c(Cl)c3)ncnc2cc1N1CC2(CCN2C)C1 [compound 50] | > 1000 nM | > 1000 nM | > 1000 nM | 30 to 50 nM | > 1000 nM | 30 to 50 nM | 200 to 300 nM | 200 to 300 nM
C=CC(=O)Nc1cc2c(Nc3ccc(OCc4ccccn4)c(Cl)c3)ncnc2cc1OCCN(C)C1CC1 [compound 53] | > 1000 nM | 100 to 200 nM | 100 to 200 nM | 30 to 50 nM | > 1000 nM | 30 to 50 nM | 30 to 50 nM | 30 to 50 nM
C=CC(=O)Nc1cc2c(Nc3ccc(OCc4ccccn4)c(Cl)c3)ncnc2cc1OCC1(N)CC1 [compound 55] | > 1000 nM | 200 to 300 nM | 200 to 300 nM | 50 to 100 nM | > 1000 nM | 50 to 100 nM | 50 to 100 nM | 50 to 100 nM
C=CC(=O)Nc1cc2c(Nc3ccc(OCc4ccccn4)cn3)ncnc2cc1OC1CCN(C)C1 (stereo not shown) [compound 61] | > 1000 nM | > 1000 nM | > 1000 nM | 300 to 500 nM | > 1000 nM | 300 to 500 nM | 300 to 500 nM | 300 to 500 nM
C=CC(=O)Nc1cc2c(Nc3ccc(OCc4ccccn4)c(Cl)c3)ncnc2cc1N1CCC(N(C)C)C1 (stereo not shown) [compound 64] | > 1000 nM | > 1000 nM | > 1000 nM | 100 to 200 nM | > 1000 nM | 100 to 200 nM | 300 to 500 nM | 300 to 500 nM
C=CC(=O)Nc1cc2c(Nc3ccc(OCc4ccccn4)nc3)ncnc2cc1OCCN1CCOCC1 [compound 71] | 500 to 1000 nM | > 1000 nM | > 1000 nM | 50 to 100 nM | 500 to 1000 nM | 50 to 100 nM | 200 to 300 nM | 200 to 300 nM
C=CC(=O)Nc1cc2c(Nc3ccc(OCc4ccccn4)nc3)ncnc2cc1O[C@@H]1CCN(C)C1 [compound 72] | > 1000 nM | > 1000 nM | > 1000 nM | 300 to 500 nM | > 1000 nM | 300 to 500 nM | 300 to 500 nM | 300 to 500 nM
C=CC(=O)Nc1cc2c(Nc3ccc(Oc4ccc(C)nc4)c(C)c3)ncnc2cc1OCCN1CCOCC1 [compound 73] | 500 to 1000 nM | 300 to 500 nM | 300 to 500 nM | 50 to 100 nM | 500 to 1000 nM | 50 to 100 nM | 30 to 50 nM | 30 to 50 nM
C=CC(=O)Nc1cc2c(Nc3ccc(Oc4cccnc4)cc3)ncnc2cc1OCCN1CCOCC1 [compound 75] | > 1000 nM | 300 to 500 nM | 300 to 500 nM | 100 to 200 nM | > 1000 nM | 100 to 200 nM | 100 to 200 nM | 100 to 200 nM
C=CC(=O)Nc1cc2c(Nc3ccc(OCc4ccccn4)c(Cl)c3)ncnc2cc1OCCN1CCC(N(C)C)CC1 [compound 76] | 200 to 300 nM | 100 to 200 nM | 100 to 200 nM | 50 to 100 nM | 200 to 300 nM | 50 to 100 nM | 30 to 50 nM | 30 to 50 nM
C=CC(=O)Nc1cc2c(Nc3ccc(OCc4ccccn4)c(Cl)c3)ncnc2cc1OCCN1CC2CN(C)CC2C1 (stereo not shown) [compound 77] | 100 to 200 nM | 100 to 200 nM | 100 to 200 nM | 50 to 100 nM | 100 to 200 nM | 50 to 100 nM | 20 to 30 nM | 20 to 30 nM
C=CC(=O)Nc1cc2c(Nc3ccc(OCc4ccccn4)cc3)ncnc2cc1OCC1COCCN1 (stereo not shown) [compound 79] | 300 to 500 nM | > 1000 nM | > 1000 nM | 50 to 100 nM | 300 to 500 nM | 50 to 100 nM | 100 to 200 nM | 100 to 200 nM
C=CC(=O)Nc1cc2c(Nc3ccc(OCc4ccccn4)cc3)ncnc2cc1OCCN1CCC(N(C)C)CC1 [compound 80] | 100 to 200 nM | 500 to 1000 nM | 500 to 1000 nM | 50 to 100 nM | 100 to 200 nM | 50 to 100 nM | 50 to 100 nM | 50 to 100 nM
C=CC(=O)Nc1cc2c(Nc3ccc(Oc4ccc(C)nc4)c(C)c3)ncnc2cc1C#CC(C)(C)N(C)C [compound 82] | 500 to 1000 nM | 500 to 1000 nM | 500 to 1000 nM | 300 to 500 nM | 500 to 1000 nM | 300 to 500 nM | 50 to 100 nM | 50 to 100 nM
C=CC(=O)Nc1cc2c(Nc3ccc(OCc4ccccn4)c(Cl)c3)ncnc2cc1C#CC1CCCN1 (stereo not shown) [compound 83, N-(4-((3-chloro-4-(pyridin-2-ylmethoxy)phenyl)amino)-7-(pyrrolidin-2-ylethynyl)quinazolin-6-yl)acrylamide] | 500 to 1000 nM | 100 to 200 nM | 100 to 200 nM | 50 to 100 nM | 500 to 1000 nM | 50 to 100 nM | 10 to 20 nM | 10 to 20 nM
